Among the data in patent publication US9822114B2, “Tricyclic oxazolidinone antibiotic compounds” (Idorsia Pharmaceuticals Ltd, priority 2008, dated 2017) are MIC values, retold here.

A value given as a limit tells only on which side of the number the result lay.

This experiment deals with M. catarrhalis A894. In words: Minimal inhibitory concentration (MIC), microdilution method in cation-adjusted Mueller-Hinton Broth (CLSI M7-A7). The format is cell-based. The following applies: Moraxella catarrhalis, strain A894. The method, then:
Minimal inhibitory concentrations (MICs; mg/1) were determined in cation-adjusted Mueller-Hinton Broth by a microdilution method following the description given in “Methods for Dilution Antimicrobial Susceptibility Tests for Bacteria that Grow Aerobically”, Approved standard, 7th ed., Clinical and Laboratory Standards Institute (CLSI) Document M7-A7, Wayne, Pa., USA, 2006.
On the technique in general: Dilution methods test growth across graded concentrations, often in twofold steps.
On to `O=C1CSc2ccc(N3C[C@H](CCNCC4CN5C(=O)CCc6ccc(F)c4c65)OC3=O)cc2N1` (mixture of isomers) [Example 29, (1RS)-9-fluoro-1-({2-[(S)-2-oxo-3-(3-oxo-3,4-dihydro-2H-benzo[1,4]thiazin-6-yl)-oxazolidin-5-yl]-ethylamino}-methyl)-1,2,5,6-tetrahydro-pyrrolo[3,2,1-ij]quinolin-4-one], for which the MIC (as a rule, the least concentration at which growth counts as inhibited) was no more than 0.031 µg/mL.
The value for `O=C1CSc2ccc(N3C[C@H](CNCC4Cn5c(=O)ccc6ccc(F)c4c65)OC3=O)cc2N1` (mixture of isomers) [Example 30, (1RS)-9-fluoro-1-({[(S)-2-oxo-3-(3-oxo-3,4-dihydro-2H-benzo[1,4]thiazin-6-yl)-oxazolidin-5-ylmethyl]-amino}-methyl)-1,2-dihydro-pyrrolo[3,2,1-ij]quinolin-4-one] was 0.031 µg/mL.
The value for `O=C1O[C@H](CNCC2Cn3c(=O)ccc4ccc(F)c2c43)CN1c1ccc2c(c1)OCCO2` (mixture of isomers) [Example 31, (1RS)-1-({[(R)-3-(2,3-dihydro-benzo[1,4]dioxin-6-yl)-2-oxo-oxazolidin-5-ylmethyl]-amino}-methyl)-9-fluoro-1,2-dihydro-pyrrolo[3,2,1-ij]quinolin-4-one] was 16 µg/mL.
As for `O=C1COc2ccc(N3C[C@@H](CNCC4Cn5c(=O)ccc6ccc(F)c4c65)OC3=O)cc2N1` (mixture of isomers) [Example 32, (1RS)-9-fluoro-1-({[(R)-2-oxo-3-(3-oxo-3,4-dihydro-2H-benzo[1,4]oxazin-6-yl)-oxazolidin-5-ylmethyl]-amino}-methyl)-1,2-dihydro-pyrrolo[3,2,1-ij]quinolin-4-one], the MIC is 0.031 µg/mL.
With `Cc1ccc(N2C[C@@H](CNCC3Cn4c(=O)ccc5ccc(F)c3c54)OC2=O)cc1F` (mixture of isomers) [Example 33, (1RS)-9-fluoro-1-({[(R)-3-(3-fluoro-4-methyl-phenyl)-2-oxo-oxazolidin-5-ylmethyl]-amino}-methyl)-1,2-dihydro-pyrrolo[3,2,1-ij]quinolin-4-one], the MIC is 16 µg/mL.
Take `O=C1CSc2ccc(N3C[C@@H](CCNCC4Cn5c(=O)ccc6nccc4c65)OC3=O)cc2N1` (mixture of isomers) [Example 34, (RS)-4-({2-[(R)-2-oxo-3-(3-oxo-3,4-dihydro-2H-benzo[1,4]thiazin-6-yl)-oxazolidin-5-yl]-ethylamino}-methyl)-4,5-dihydro-pyrrolo[3,2,1-de][1,5]naphthyridin-7-one]: the minimum inhibitory concentration (MIC) was no more than 0.031 µg/mL.
The value for `O=C1CSc2ccc(N3C[C@@H](CCCNC4Cn5c(=O)ccc6cccc4c65)OC3=O)cc2N1` (mixture of isomers) [Example 35, (RS)-1-{3-[(R)-2-oxo-3-(3-oxo-3,4-dihydro-2H-benzo[1,4]thiazin-6-yl)-oxazolidin-5-yl]-propylamino}-1,2-dihydro-pyrrolo[3,2,1-ij]quinolin-4-one] was no more than 0.031 µg/mL.
For `CCCc1ccc(N2C[C@@H](CNCC3Cn4c(=O)ccc5ccc(F)c3c54)OC2=O)cc1` (mixture of isomers) [Example 37, (RS)-9-fluoro-1-({[(R)-2-oxo-3-(4-propyl-phenyl)-oxazolidin-5-ylmethyl]-amino}-methyl)-1,2-dihydro-pyrrolo[3,2,1-ij]quinolin-4-one], the minimal inhibitory concentration (MIC) stood at 1 µg/mL.
The value for `CCCCc1ccc(N2C[C@@H](CNCC3Cn4c(=O)ccc5ccc(F)c3c54)OC2=O)cc1` (mixture of isomers) [Example 38, (RS)-1-({[(R)-3-(4-butyl-phenyl)-2-oxo-oxazolidin-5-ylmethyl]-amino}-methyl)-9-fluoro-1,2-dihydro-pyrrolo[3,2,1-ij]quinolin-4-one] was 16 µg/mL.
For `CCOc1ccc(N2C[C@@H](CCNCC3Cn4c(=O)ccc5ccc(F)c3c54)OC2=O)cc1` (mixture of isomers) [Example 44, (RS)-1-({2-[(R)-3-(4-ethoxy-phenyl)-2-oxo-oxazolidin-5-yl]-ethylamino}-methyl)-9-fluoro-1,2-dihydro-pyrrolo[3,2,1-ij]quinolin-4-one] the value was 0.125 µg/mL.
With `CCCc1ccc(N2C[C@@H](CCNCC3Cn4c(=O)ccc5ccc(F)c3c54)OC2=O)cc1` (mixture of isomers) [Example 45, (RS)-9-fluoro-1-({2-[(R)-2-oxo-3-(4-propyl-phenyl)-oxazolidin-5-yl]-ethylamino}-methyl)-1,2-dihydro-pyrrolo[3,2,1-ij]quinolin-4-one], the minimum inhibitory concentration (MIC) was determined as 0.063 µg/mL.
`O=C1O[C@H](CCNCC2Cn3c(=O)ccc4ccc(F)c2c43)CN1c1ccc2c(c1)OCCO2` (mixture of isomers) [Example 46, (RS)-1-({2-[(R)-3-(2,3-dihydro-benzo[1,4]dioxin-6-yl)-2-oxo-oxazolidin-5-yl]-ethylamino}-methyl)-9-fluoro-1,2-dihydro-pyrrolo[3,2,1-ij]quinolin-4-one] registered a minimal inhibitory concentration (MIC) of no more than 0.031 µg/mL.
Take `O=C1CSc2ccc(N3C[C@@H](CCCNCC4Cn5c(=O)ccc6ccc(F)c4c65)OC3=O)cc2N1` (mixture of isomers) [Example 51, (RS)-9-fluoro-1-({3-[(R)-2-oxo-3-(3-oxo-3,4-dihydro-2H-benzo[1,4]thiazin-6-yl)-oxazolidin-5-yl]-propylamino}-methyl)-1,2-dihydro-pyrrolo[3,2,1-ij]quinolin-4-one]: the minimal inhibitory concentration (MIC) was no more than 0.031 µg/mL.
The value for `O=C1COc2ccc(N3C[C@@H](CCCNCC4Cn5c(=O)ccc6ccc(F)c4c65)OC3=O)cc2N1` (mixture of isomers) [Example 52, (RS)-9-fluoro-1-({3-[(R)-2-oxo-3-(3-oxo-3,4-dihydro-2H-benzo[1,4]oxazin-6-yl)-oxazolidin-5-yl]-propylamino}-methyl)-1,2-dihydro-pyrrolo[3,2,1-ij]quinolin-4-one] was no more than 0.031 µg/mL; that for `O=C1CSc2ccc(N3C[C@H](CCNCC4Cn5c(=O)cnc6cccc4c65)OC3=O)cc2N1` (mixture of isomers) [Example 56, (RS)-6-({2-[(S)-2-oxo-3-(3-oxo-3,4-dihydro-2H-benzo[1,4]thiazin-6-yl)-oxazolidin-5-yl]-ethylamino}-methyl)-5,6-dihydro-pyrrolo[1,2,3-de]quinoxalin-3-one] was no more than 0.031 µg/mL.
The value for `CCCc1ccc(N2C[C@@H](CCNC3Cn4c(=O)ccc5ccc(F)c3c54)OC2=O)cc1` (mixture of isomers) [Example 59, (RS)-9-fluoro-1-{2-[(R)-2-oxo-3-(4-propyl-phenyl)-oxazolidin-5-yl]-ethylamino}-1,2-dihydro-pyrrolo[3,2,1-ij]quinolin-4-one] was 4 µg/mL; that for `O=C1O[C@@H](CCNCC2Cn3c(=O)ccc4ccc(F)c2c43)CN1c1ccc2c(c1)OCCO2` (mixture of isomers) [Example 60, (RS)-1-({2-[(S)-3-(2,3-dihydro-benzo[1,4]dioxin-6-yl)-2-oxo-oxazolidin-5-yl]-ethylamino}-methyl)-9-fluoro-1,2-dihydro-pyrrolo[3,2,1-ij]quinolin-4-one] was no more than 0.031 µg/mL; that for `O=C1CSc2ccc(N3C[C@@H](CNCC4Cn5c(=O)ccc6cccc4c65)OC3=O)cc2N1` (mixture of isomers) [Example 63, (RS)-1-({[(R)-2-oxo-3-(3-oxo-3,4-dihydro-2H-benzo[1,4]thiazin-6-yl)-oxazolidin-5-ylmethyl]-amino}-methyl)-1,2-dihydro-pyrrolo[3,2,1-ij]quinolin-4-one] was 0.031 µg/mL.
For `O=C1CSc2ccc(N3C[C@@H](CN(CCCO)CCC4Cn5c(=O)ccc6ccc(F)c4c65)OC3=O)cc2N1` (mixture of isomers) [Example 68, (RS)-9-fluoro-1-(2-{(3-hydroxy-propyl)-[(R)-2-oxo-3-(3-oxo-3,4-dihydro-2H-benzo[1,4]thiazin-6-yl)-oxazolidin-5-ylmethyl]-amino}-ethyl)-1,2-dihydro-pyrrolo[3,2,1-ij]quinolin-4-one], the MIC is no more than 0.031 µg/mL.
The value for `O=C1CSc2ccc(N3C[C@@H](CN(CCO)CCC4Cn5c(=O)ccc6ccc(F)c4c65)OC3=O)cc2N1` (mixture of isomers) [Example 69, (RS)-9-fluoro-1-(2-{(2-hydroxy-ethyl)-[(R)-2-oxo-3-(3-oxo-3,4-dihydro-2H-benzo[1,4]thiazin-6-yl)-oxazolidin-5-ylmethyl]-amino}-ethyl)-1,2-dihydro-pyrrolo[3,2,1-ij]quinolin-4-one] was no more than 0.031 µg/mL; that for `O=C1COc2ccc(N3C[C@@H](CCCNC4Cn5c(=O)ccc6ccc(F)c4c65)OC3=O)nc2N1` (mixture of isomers) [Example 70, (RS)-9-fluoro-1-{3-[(R)-2-oxo-3-(3-oxo-3,4-dihydro-2H-pyrido[3,2-b][1,4]oxazin-6-yl)-oxazolidin-5-yl]-propylamino}-1,2-dihydro-pyrrolo[3,2,1-ij]quinolin-4-one] was no more than 0.031 µg/mL; that for `O=C1CSc2ccc(N3C[C@H](CNCC4Cn5c(=O)ccc6cccc4c65)OC3=O)cc2N1` (mixture of isomers) [Example 81, (RS)-1-({[(S)-2-oxo-3-(3-oxo-3,4-dihydro-2H-benzo[1,4]thiazin-6-yl)-oxazolidin-5-ylmethyl]-amino}-methyl)-1,2-dihydro-pyrrolo[3,2,1-ij]quinolin-4-one] was no more than 0.031 µg/mL.
`O=C1COc2ccc(N3C[C@@H](CNCC4Cn5c(=O)ccc6cccc4c65)OC3=O)cc2N1` (mixture of isomers) [Example 82, (RS)-1-({[(R)-2-oxo-3-(3-oxo-3,4-dihydro-2H-benzo[1,4]oxazin-6-yl)-oxazolidin-5-ylmethyl]-amino}-methyl)-1,2-dihydro-pyrrolo[3,2,1-ij]quinolin-4-one] gave a minimal inhibitory concentration (MIC) of 0.25 µg/mL.
`O=C1CSc2ccc(N3C[C@H](CCNC4Cn5c(=O)ccc6ncc(F)c4c65)OC3=O)cc2N1` (mixture of isomers) [Example 84, (RS)-3-fluoro-4-{2-[(S)-2-oxo-3-(3-oxo-3,4-dihydro-2H-benzo[1,4]thiazin-6-yl)-oxazolidin-5-yl]-ethylamino}-4,5-dihydro-pyrrolo[3,2,1-de][1,5]naphthyridin-7-one]: the MIC is 0.063 µg/mL.
